The target of assay [1] is T1, glucocorticoid receptor (GR), recombinant full-length receptor protein (Homo sapiens, UniProt P04150).
T1 construct: 4 nM recombinant, full-length receptor protein was incubated with increasing concentrations of GR ligand; purchased Life Technologies A-15897
T1 sequence (P04150 1-777): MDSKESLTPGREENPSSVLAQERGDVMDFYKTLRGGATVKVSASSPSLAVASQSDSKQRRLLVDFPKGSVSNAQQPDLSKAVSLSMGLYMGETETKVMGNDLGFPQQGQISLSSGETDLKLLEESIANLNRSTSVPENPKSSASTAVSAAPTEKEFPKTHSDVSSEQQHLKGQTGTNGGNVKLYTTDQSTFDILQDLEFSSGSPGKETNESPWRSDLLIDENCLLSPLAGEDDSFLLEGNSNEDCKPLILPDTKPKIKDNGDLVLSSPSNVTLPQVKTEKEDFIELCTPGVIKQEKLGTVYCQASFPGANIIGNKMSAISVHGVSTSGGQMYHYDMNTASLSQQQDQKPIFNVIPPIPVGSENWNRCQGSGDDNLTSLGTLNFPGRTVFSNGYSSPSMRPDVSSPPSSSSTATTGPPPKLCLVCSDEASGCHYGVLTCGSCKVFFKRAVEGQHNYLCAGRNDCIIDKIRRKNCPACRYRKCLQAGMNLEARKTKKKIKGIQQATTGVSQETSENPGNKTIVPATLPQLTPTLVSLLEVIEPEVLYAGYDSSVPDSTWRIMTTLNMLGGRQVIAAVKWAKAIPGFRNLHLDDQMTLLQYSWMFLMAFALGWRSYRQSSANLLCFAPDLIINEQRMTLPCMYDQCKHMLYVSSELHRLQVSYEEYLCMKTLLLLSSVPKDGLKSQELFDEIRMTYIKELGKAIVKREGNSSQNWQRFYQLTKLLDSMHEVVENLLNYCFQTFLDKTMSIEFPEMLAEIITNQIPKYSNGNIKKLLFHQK
The assay is described as follows: Glucocorticoid receptor binding assay (fluorescence polarization kit). To be noted: 4 nM receptor, 2.5 nM Fluormone GS1 tracer, 2h room temperature, read-out: GR binding ABS IC50. As to the method: Test compounds were diluted in DMSO over seven orders of magnitude, further diluted in assay buffer and distributed into 384-well plates. The sensitivity limit of this assay was 2-4 nM.
Data were processed by sigmoidal curve fitting.
Absolute (Abs) IC50 and Emax were determined from the curve fits.
On the technique in general: In fluorescence polarisation assays a small probe gives low polarisation when free and higher when bound to something large.

For assay [2], the system named is TNF alpha release from human PBMCs. Description: Inhibition of TNF alpha release from human PBMCs. The format is cell-based. The note with it: PBMC, LPS 1 μg/ml, 18 hours, AlphaLISA. How it is done: PBMC were isolated from fresh buffy coats by density centrifugation using lymphoprep (Medinor AB, cat no 1019818) tubes. Isolated PBMCs were washed in assay medium (RPMI1640 with 25 mM HEPES, 1% pen/strep, 200 mM L glutamine and 10% Foetal calf serum). Surplus PBMCs were frozen in medium containing extra 10% foetal calf serum and 5% DMSO. On the assay day, fresh cells or cryopreserved cells after thawing were washed in serum free medium (RPMI1640 with 25 mM HEPES, 1% pen/strep, 200 mM L glutamine and 0.5% human serum albumin) and counted, in order to determine the fraction of living cells (generally >95%).
Test compounds were diluted in DMSO over seven orders of magnitude, further diluted in serum-free medium and distributed into wells of 384 well tissue culture plates. LPS was added to a final concentration of 1 μg/ml to the cells. Immediately thereafter titrated test compounds were added and incubated for 18 hours at 37° C.
The level of TNF-a in the culture supernatant was quantitated by AlphaLISA (Perkin Elmer). 2-(3,5-dichloro-4-pyridinyl)-1-(7-methoxyspiro[1,3-benzodioxole-2,1′-cyclopentan]-4-yl)-ethanone (CAS 185406-34-2) at 100×IC50 was used to define the assay window.
Data were processed by sigmoidal curve fitting. EC50 and Emax were determined from the curve fits.

The term pIC50 denotes −log10 of the IC50, conventionally taken in molar units. As usually defined, the pEC50 is the negative decadic logarithm of the EC50, by convention in mol/L.

Molecules are shown by their SMILES. pEC50, pIC50: −log10 of the molar value.

Consider `C[C@H](NC(=O)C1CCCO1)[C@H](Oc1ccc(C(=O)O[C@H]2CCCN(C(=O)C3COC(=O)C3)C2)cc1)c1ccc(C2CC2)cc1` (stereo in doubt) [Compound 79, [(3S)-1-[(3R)-5-oxotetrahydrofuran-3-carbonyl]-3-piperidyl] 4-[(1R,2S)-1-(4-cyclopropylphenyl)-2-[[(2R)-tetrahydrofuran-2-carbonyl]amino]propoxy]benzoate], for which, in assay [1], the pIC50 is above 7.00. Further, in assay [2], the pEC50 is above 7.00.
Take `C[C@H](NC(=O)CO)[C@H](Oc1ccc(C(=O)N[C@H]2CCCN(C(=O)[C@H]3COC(=O)C3)C2)nc1)c1ccc(C2CC2)cc1` [Compound 21, 5-[(1R,2S)-1-(4-cyclopropylphenyl)-2-[(2-hydroxyacetyl)amino]propoxy]-N-[(3S)-1-[(3R)-5-oxotetrahydrofuran-3-carbonyl]-3-piperidyl]pyridine-2-carboxamide]: in assay [1], the pIC50 was above 7.00. The compound further showed a pEC50 in assay [2] above 7.00.
With `C[C@H](NC(=O)c1cncs1)[C@H](Oc1ccc(C(=O)O[C@H]2CCCN(C(=O)[C@H]3COC(=O)C3)C2)cc1)c1ccc(C2CC2)cc1` [Compound 27, [(3S)-1-[(3R)-5-oxotetrahydrofuran-3-carbonyl]-3-piperidyl] 4-[(1R,2S)-1-(4-cyclopropylphenyl)-2-(thiazole-5-carbonylamino)propoxy]benzoate], the pIC50 in assay [1] is above 7.00. Also, the pEC50 in assay [2] is above 7.00.
With `Cc1ccc([C@@H](Oc2ccc(C(=O)N[C@@H]3CCN(C(=O)[C@H]4COC(=O)C4)C3)nc2)[C@H](C)NC(=O)C(F)(F)F)cc1` [Compound 65, N-[(3R)-1-[(3R)-5-oxotetrahydrofuran-3-carbonyl]pyrrolidin-3-yl]-5-[(1R,2S)-1-(p-tolyl)-2-[(2,2,2-trifluoroacetyl)amino]propoxy]pyridine-2-carboxamide], the pIC50 in assay [1] was 6.52 to 7.00. This compound also gave a pEC50 in assay [2] above 7.00.
The matching figures for `C[C@H](NC(=O)C(F)(F)F)[C@H](Oc1ccc(C(=O)N[C@H]2CCCN(C(=O)[C@H]3COC(=O)C3)C2)nc1)c1ccc(Br)cc1` [Compound 67, 5-[(1R,2S)-1-(4-bromophenyl)-2-[(2,2,2-trifluoroacetyl)amino]propoxy]-N-[(3S)-1-[(3R)-5-oxotetrahydrofuran-3-carbonyl]-3-piperidyl]pyridine-2-carboxamide]: above 7.00 and above 7.00.
Consider `C[C@H](NC(=O)C(F)(F)F)[C@H](Oc1ccc(C(=O)N[C@H]2CCCN(C(=O)[C@H]3COC(=O)C3)C2)nc1)c1ccc(-c2ccccc2)cc1` [Compound 68, N-[(3S)-1-[(3R)-5-oxotetrahydrofuran-3-carbonyl]-3-piperidyl]-5-[(1R,2S)-1-(4-phenylphenyl)-2-[(2,2,2-trifluoroacetyl)amino]propoxy]pyridine-2-carboxamide], for which, in assay [1], the pIC50 is above 7.00. The compound also showed a pEC50 in assay [2] above 7.00.
Regarding `Cc1ccc([C@@H](Oc2ccc(C(=O)N[C@H]3CCCN(C(=O)[C@H]4COC(=O)C4)C3)cc2)[C@H](C)NC(=O)C(F)(F)F)cc1` [Compound 69, N-[(3S)-1-[(3R)-5-oxotetrahydrofuran-3-carbonyl]-3-piperidyl]-4-[(1R,2S)-1-(p-tolyl)-2-[(2,2,2-trifluoroacetyl)amino]propoxy]benzamide], in assay [1], the pIC50 was above 7.00. Moreover, the pEC50 in assay [2] was above 7.00.
`Cc1ccc([C@@H](Oc2ccc(C(=O)N[C@H]3CCCN(C(=O)N[C@@H]4COC(=O)C4)C3)nc2)[C@H](C)NC(=O)C(F)(F)F)cc1` [Compound 71, N-[(3S)-1-[[(3S)-5-oxotetrahydrofuran-3-yl]carbamoyl]-3-piperidyl]-5-[(1R,2S)-1-(p-tolyl)-2-[(2,2,2-trifluoroacetyl)amino]propoxy]pyridine-2-carboxamide]: the pIC50 in assay [1] is above 7.00. For the same compound, the pEC50 in assay [2] was above 7.00.
On to `Cc1ccc([C@@H](Oc2ccc(C(=O)N[C@H]3CCCN(C(=O)N[C@H]4COC(=O)C4)C3)nc2)[C@H](C)NC(=O)C(F)(F)F)cc1` [Compound 72, N-[(3S)-1-[[(3R)-5-oxotetrahydrofuran-3-yl]carbamoyl]-3-piperidyl]-5-[(1R,2S)-1-(p-tolyl)-2-[(2,2,2-trifluoroacetyl)amino]propoxy]pyridine-2-carboxamide], for which the pIC50 in assay [1] was above 7.00. This compound also showed a pEC50 in assay [2] of 6.52 to 7.00.
On to `Cc1ccc([C@@H](Oc2ccc(C(=O)N[C@H]3CCCN(C(=O)O[C@H]4CCOC4=O)C3)nc2)[C@H](C)NC(=O)C(F)(F)F)cc1` [Compound 73, [(3S)-2-oxotetrahydrofuran-3-yl] (3S)-3-[[5-[(1R,2S)-1-(p-tolyl)-2-[(2,2,2-trifluoroacetyl)amino]propoxy]pyridine-2-carbonyl]amino]piperidine-1-carboxylate], for which the pIC50 in assay [1] is above 7.00.
For the compound `Cc1ccc([C@@H](Oc2ccc(C(=O)N[C@H]3CCCN(C(=O)O[C@@H]4CCOC4=O)C3)nc2)[C@H](C)NC(=O)C(F)(F)F)cc1` [Compound 74, [(3R)-2-oxotetrahydrofuran-3-yl] (3S)-3-[[5-[(1R,2S)-1-(p-tolyl)-2-[(2,2,2-trifluoroacetyl)amino]propoxy]pyridine-2-carbonyl]amino]piperidine-1-carboxylate], the pIC50 in assay [1] was above 7.00. For the same compound, in assay [2], the pEC50 was above 7.00.
With `Cc1ccc([C@@H](Oc2ccc(C(=O)N[C@H]3CCCN(C(=O)O[C@@H]4COC(=O)C4)C3)nc2)[C@H](C)NC(=O)C(F)(F)F)cc1` [Compound 75, [(3S)-5-oxotetrahydrofuran-3-yl] (3S)-3-[[5-[(1R,2S)-1-(p-tolyl)-2-[(2,2,2-trifluoroacetyl)amino]propoxy]pyridine-2-carbonyl]amino]piperidine-1-carboxylate], the pIC50 in assay [1] was above 7.00. This compound also gave a pEC50 in assay [2] of 6.52 to 7.00.
On to `Cc1ccc([C@@H](Oc2ccc(C(=O)N[C@H]3CCCN(C(=O)O[C@H]4COC(=O)C4)C3)nc2)[C@H](C)NC(=O)C(F)(F)F)cc1` [Compound 76, [(34)-5-oxotetrahydrofuran-3-yl] (3S)-3-[[5-[(1R,2S)-1-(p-tolyl)-2-[(2,2,2-trifluoroacetyl)amino]propoxy]pyridine-2-carbonyl]amino]piperidine-1-carboxylate], for which, in assay [1], the pIC50 was above 7.00. The compound also showed a negative-log EC50 (pEC50) in assay [2] of 6.52 to 7.00.
Take `C[C@H](NC(=O)[C@H]1CCCO1)[C@H](Oc1ccc(C(=O)O[C@H]2CCCN(C(=O)[C@@H]3COC(=O)C3)C2)cc1)c1ccc(C2CC2)cc1` [Compound 77, [(3S)-1-[(3S)-5-oxotetrahydrofuran-3-carbonyl]-3-piperidyl] 4-[(1R,2S)-1-(4-cyclopropylphenyl)-2-[[(2R)-tetrahydrofuran-2-carbonyl]amino]propoxy]benzoate]: the pIC50 in assay [1] was above 7.00. Further, the pEC50 in assay [2] was above 7.00.
`C[C@H](NC(=O)[C@@H]1CCCO1)[C@H](Oc1ccc(C(=O)O[C@H]2CCCN(C(=O)[C@H]3COC(=O)C3)C2)cc1)c1ccc(C2CC2)cc1` [Compound 78, [(3S)-1-[(3R)-5-oxotetrahydrofuran-3-carbonyl]-3-piperidyl] 4-[(1R,2S)-1-(4-cyclopropylphenyl)-2-[[(2S)-tetra hydrofuran-2-carbonyl]amino]propoxy]benzoate]: the pIC50 in assay [1] was above 7.00. Further, in assay [2], the pEC50 was above 7.00.
